Results published in patent US20230123585A1, “COMPOSITIONS AND METHODS FOR TREATING OR PREVENTING CANCER USING DEUBIQUITINASE INHIBITORS” (The University of Chicago, priority 2020, published 2023).

Experiments:
[1] = system: m^6A methyltransferase complex in HCT-116 cells; experiment: Immunoblot of m^6A methyltransferase complex in HCT-116 cell lysates; assay type: cell-based; conditions: 8 h, 10 μM PD0325901 or 0.1 μM trametinib
Protocol: FIGS. 14A-14I: Phosphorylation of the m^6A Methyltransferase Complex May Affect Tumorigenesis. (A) Oncogenes (promote cancer), tumor suppressors (inhibit carcinogenesis), and drivers (important in cancer development, either oncogene or tumor suppressor) were used as classifiers by Cancermine database to identify the potential role of METTL3 from the published literature. (B) LC-MS/MS quantification of the m^6A/A ratio in mRNA of melanoma cell lines. (C) After 8 h treatment with 10 μM PD0325901 or 0.1 μM tramentib, cell lysates from HCT-116 cells were analyzed by immunoblot. (D) Kaplan-Meier analysis of overall survival time based on METTL3 expression from the skin cutaneous melanoma (SKCM) dataset at The Cancer Genome Atlas (TCGA). […] The ubiquitination of METTL3 was detected by IP with anti-METTL3 and immunoblot with anti-HA. (F) After 8 hr treatment with 10 μM EOAI3402143 (EOAI) or 30 μM vialinin A, cell lysates from HCT-116 cells were analyzed by immunoblot. […] (I) LC-MS/MS quantification of the m^6A/A ratio in mRNA of breast cancer cell lines.
(§1) Immunoprecipitation, immunoblotting, and in vitro kinase assay. […] Primary antibodies were detected by HRP-linked secondary antibodies (Cell Signaling) together with SuperSignal West Pico Plus chemiluminescent substrate (Thermo Scientific) and imaged in a FluorChem R system (ProteinSimple).

ubiquitination of METTL3 = experiment: Ubiquitination of METTL3 in A375 cells transfected with HA-ubiquitin (IP anti-METTL3, immunoblot anti-HA); assay type: cell-based, human; conditions: 10 μM MG-132 and PD0325901 for 8 h
Protocol: FIGS. 11A-11G: USP5 is Required for ERK-Mediated METTL3 Stabilization. (A) A375 cells transfected with HA-ubiquitin (ub) were treated with 10 μM MG-132 and MEK inhibitor PD0325901 for 8 h. The ubiquitination of METTL3 was detected by IP with anti-METTL3 and immunoblot with anti-HA. (B) After 8 h treatment with 10 μM PD0325901 with or without 10 μM MG-132, cell lysates from A375 cells were analyzed by immunoblot. (C) A375 cells were treated with various concentrations of PD0325901 for 1 h. Cell lysates were subjected to IP with METTL3 antibody followed by immunoblot. (D) 293T cells transfected as indicated were subjected to IP/immunoblot analysis. (E) Immunofluorescence analysis of myc-METTL3 (green) in mESC stable transfectants. DAPI (blue) was used to mark the nucleus. (F) Lysates of 293T cells transfected as indicated were subjected to IP with anti-Flag antibody followed by immunoblot. (G) Immunofluorescence analysis of 293T cells co-transfected with myc-METTL3 (green), Flag-USP5 (red) with or without constitutively active B-RAF.
FIGS. 14A-14I: Phosphorylation of the m^6A Methyltransferase Complex May Affect Tumorigenesis. […] (B) LC-MS/MS quantification of the m^6A/A ratio in mRNA of melanoma cell lines. (C) After 8 h treatment with 10 μM PD0325901 or 0.1 μM tramentib, cell lysates from HCT-116 cells were analyzed by immunoblot. […] The ubiquitination of METTL3 was detected by IP with anti-METTL3 and immunoblot with anti-HA. (F) After 8 hr treatment with 10 μM EOAI3402143 (EOAI) or 30 μM vialinin A, cell lysates from HCT-116 cells were analyzed by immunoblot. […] (I) LC-MS/MS quantification of the m^6A/A ratio in mRNA of breast cancer cell lines.
as §1

mRNA m^6A in A375 cells = experiment: LC-MS/MS quantification of the m^6A/A ratio in mRNA of A375 cells; assay type: cell-based, human; conditions: A375 melanoma cells, 48 h, 10 μM PD0325901 or 0.1 μM trametinib
Protocol: FIGS. 6A-6H: Phosphorylation of the m^6A Methyltransferase Complex May Affect Tumorigenesis. (A) Lysates of A375 stable transfectants harvested at different time points after treatment with cycloheximide (CHX) 10 μg/ml were analyzed by immunoblot. (B) LC-MS/MS quantification of the m^6A/A ratio in mRNA of A375 stable transfectants. (C) After 8 h treatment with 10 μM PD0325901 or 0.1 μM tramentib, cell lysates from A375 cells were analyzed by immunoblot. (D) LC-MS/MS quantification of the m^6A/A ratio in mRNA of A375 cells treated with 10 μM PD0325901 or 0.1 μM tramentib for 48 h. (E) After 8hr treatment with 10 μM EOAI3402143 (EOAI) or 30 μM vialinin A , cell lysates from A375 cells were analyzed by immunoblot. […] (H) LC-MS/MS quantification of the m^6A/A ratio in mRNA of SKBR3 and BT474 cells treated with 1 μM tucatinib and 1 μM lapatinib for 48 h. […]
LC-MS/MS quantification of m^6A in poly(A) RNA. mRNA was extracted from the total RNA using 2 rounds of the Dynabeads mRNA purification kit. […] The nucleosides were quantified by using the nucleoside-to-base ion mass transitions of 282 to 150 (m^6A) and 268 to 136 (A). Quantification was carried out by comparison with a standard curve obtained from pure nucleoside. The ratio of m^6A to A was calculated based on the calibrated concentrations (Liu et al., 2018).

SMILES: O=C(NOC[C@H](O)CO)c1ccc(F)c(F)c1Nc1ccc(I)cc1F [PD0325901]
- m^6A methyltransferase complex level [1]: decreased
- ubiquitination of METTL3 (ubiquitination of METTL3): increased
- overall mRNA m^6A levels (m^6A/A ratio) (mRNA m^6A in A375 cells): reduce
